Assay results as given in patent publication US11254663B2 (BRISTOL-MYERS SQUIBB COMPANY, priority 2019, dated 2022).

Biological target: FXR (Homo sapiens (Human), UniProt Q96RI1)
Test: transient human FXR/Gal4-luciferase reporter assay
Assay type: cell-based
Conditions: not given
Procedure, shortened: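 Compound exposure ran overnight at 37 °C and activity was measured as luminescence with Steady-Glo reagent. The cells were a HEK293 line stably expressing firefly luciferase under five Gal4 response elements. They were transiently transfected, one night beforehand, with a plasmid encoding Gal4 DNA-binding domain fused to the human FXR ligand-binding domain.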

Sequence of FXR (Q96RI1 262-486): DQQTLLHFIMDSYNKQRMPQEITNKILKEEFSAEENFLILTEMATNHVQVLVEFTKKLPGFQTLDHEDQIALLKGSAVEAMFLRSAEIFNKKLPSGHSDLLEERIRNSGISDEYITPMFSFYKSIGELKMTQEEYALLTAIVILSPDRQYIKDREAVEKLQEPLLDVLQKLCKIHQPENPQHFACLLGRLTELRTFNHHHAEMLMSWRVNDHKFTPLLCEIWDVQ

In order of falling EC50:
1. CS(=O)(=O)Nc1ccc(-c2cccc(N(CC34CCC(c5nc(C(F)F)no5)(CC3)CC4)C(=O)C34CC(F)(C3)C4)c2)cc1 [Example 469, N-((4-(3-(difluoromethyl)-1,2,4-oxadiazol-5-yl)bicyclo[2.2.2]octan-1-yl)methyl)-3-fluoro-N-(4′-(methylsulfonamido)-[1,1′-biphenyl]-3-yl)bicyclo[1.1.1]pentane-1-carboxamide]  654 nM
2. CC(C)(C)c1nc(C23CCC(CN(C(=O)C45CC(F)(C4)C5)c4cc(-c5ccc6[nH]c(=O)oc6c5)ccn4)(CC2)CC3)no1 [Example 540, N-((4-(5-(tert-butyl)-1,2,4-oxadiazol-3-yl)bicyclo[2.2.2]octan-1-yl)methyl)-3-fluoro-N-(4-(2-oxo-2,3-dihydrobenzo[d]oxazol-6-yl)pyridin-2-yl)bicyclo[1.1.1]pentane-1-carboxamide]  71 nM

Same assay, conditions: Gal4-hFXR fusion construct, HEK293 reporter cells; response relative to 8 μM GW-4064

In order of rising EC50:
1. O=C(N(CC12CCC(c3nc(C4CC4)no3)(CC1)CC2)c1cccc(-c2ccc(OC(F)F)cc2)c1)C12CC(F)(C1)C2 [Example 308, N-((4-(3-cyclopropyl-1,2,4-oxadiazol-5-yl)bicyclo[2.2.2]octan-1-yl)methyl)-N-(4′-(difluoromethoxy)-[1,1′-biphenyl]-3-yl)-3-fluorobicyclo[1.1.1]pentane-1-carboxamide]  15 nM
2. CC(C)(C)c1nc(C23CCC(CN(C(=O)C45CC(F)(C4)C5)c4cccc(-c5ccc(OC(F)F)cn5)c4)(CC2)CC3)no1 [Example 455, N-((4-(5-(tert-butyl)-1,2,4-oxadiazol-3-yl)bicyclo[2.2.2]octan-1-yl)methyl)-N-(3-(5-(difluoromethoxy)pyridin-2-yl)phenyl)-3-fluorobicyclo[1.1.1]pentane-1-carboxamide]  17 nM
3. Cc1nc2ccc(-c3ccnc(N(CC45CCC(c6nc(C7CC7)no6)(CC4)CC5)C(=O)C45CC(F)(C4)C5)c3)cc2s1 [Example 549, N-((4-(3-cyclopropyl-1,2,4-oxadiazol-5-yl)bicyclo[2.2.2]octan-1-yl)methyl)-3-fluoro-N-(4-(2-methylbenzo[d]thiazol-6-yl)pyridin-2-yl)bicyclo[1.1.1]pentane-1-carboxamide]  36 nM
4. CC(C)(C)NC(=O)N(CC12CCC(c3noc(C(F)(F)F)n3)(CC1)CC2)c1cccc(-c2ccc(C(C)(C)O)cc2)c1 [Example 611, 3-(tert-butyl)-1-(4′-(2-hydroxypropan-2-yl)-[1,1′-biphenyl]-3-yl)-1-((4-(5-(trifluoromethyl)-1,2,4-oxadiazol-3-yl)bicyclo[2.2.2]octan-1-yl)methyl) urea]  41 nM
5. CCOc1ncc(-c2cccc(N(CC34CCC(c5nc(C(C)C)no5)(CC3)CC4)C(=O)C34CC(F)(C3)C4)c2)cn1 [Example 374, N-(3-(2-ethoxypyrimidin-5-yl)phenyl)-3-fluoro-N-((4-(3-isopropyl-1,2,4-oxadiazol-5-yl)bicyclo[2.2.2]octan-1-yl)methyl)bicyclo[1.1.1]pentane-1-carboxamide]  44 nM
6. CCOc1ncc(-c2cccc(N(CC34CCC(c5noc(C(C)C)n5)(CC3)CC4)C(=O)C34CC(F)(C3)C4)c2)cn1 [Example 429, N-(3-(2-ethoxypyrimidin-5-yl)phenyl)-3-fluoro-N-((4-(5-isopropyl-1,2,4-oxadiazol-3-yl)bicyclo[2.2.2]octan-1-yl)methyl)bicyclo[1.1.1]pentane-1-carboxamide]  46 nM
7. CC(C)(C#N)Oc1ccc(-c2cc(N(CC34CCC(c5noc(C(C)(C)F)n5)(CC3)CC4)C(=O)[C@H]3C[C@](O)(C(F)(F)F)C3)ccc2F)cc1 [Example 582, (cis)-N-(4′-((2-cyanopropan-2-yl)oxy)-6-fluoro-[1,1′-biphenyl]-3-yl)-N-((4-(5-(2-fluoropropan-2-yl)-1,2,4-oxadiazol-3-yl)bicyclo[2.2.2]octan-1-yl)methyl)-3-hydroxy-3-(trifluoromethyl)cyclobutane-1-carboxamide]  48 nM
8. CC(C)(C)c1nc(C23CCC(CN(C(=O)C45CC(F)(C4)C5)c4cccc(-c5ccc(OC(F)F)cc5)c4)(CC2)CC3)no1 [Example 444, N-((4-(5-(tert-butyl)-1,2,4-oxadiazol-3-yl)bicyclo[2.2.2]octan-1-yl)methyl)-N-(4′-(difluoromethoxy)-[1,1′-biphenyl]-3-yl)-3-fluorobicyclo[1.1.1]pentane-1-carboxamide]  61 nM
9. CC(C)Oc1ccc(-c2ccnc(N(CC34CCC(c5cc(C(C)(F)F)nn5C)(CC3)CC4)C(=O)OC(C)(C)C(F)(F)F)c2)cc1 [Example 657, 1,1,1-trifluoro-2-methylpropan-2-yl ((4-(3-(1,1-difluoroethyl)-1-methyl-1H-pyrazol-5-yl)bicyclo[2.2.2]octan-1-yl)methyl)(4-(4-isopropoxyphenyl)pyridin-2-yl)carbamate]  67 nM
10. CCOc1ccc(-c2cccc(N(CC34CCC(c5noc(C(C)(C)C)n5)(CC3)CC4)C(=O)C34CC(F)(C3)C4)c2)cc1 [Example 439, N-((4-(5-(tert-butyl)-1,2,4-oxadiazol-3-yl)bicyclo[2.2.2]octan-1-yl)methyl)-N-(4′-ethoxy-[1,1′-biphenyl]-3-yl)-3-fluorobicyclo[1.1.1]pentane-1-carboxamide]  70 nM
11. CC(C)(C)c1nc(C23CCC(CN(C(=O)C45CC(F)(C4)C5)c4cncc(-c5ccc(OC(F)F)cn5)c4)(CC2)CC3)no1 [Example 486, N-((4-(5-(tert-butyl)-1,2,4-oxadiazol-3-yl)bicyclo[2.2.2]octan-1-yl)methyl)-N-(5-(difluoromethoxy)-[2,3′-bipyridin]-5′-yl)-3-fluorobicyclo[1.1.1]pentane-1-carboxamide]  89 nM
12. CCOc1ccc(-c2cccc(N(CC34CCC(c5nc(C(C)(C)C)no5)(CC3)CC4)C(=O)C34CC(F)(C3)C4)c2)cn1 [Example 360, N-((4-(3-(tert-butyl)-1,2,4-oxadiazol-5-yl)bicyclo[2.2.2]octan-1-yl)methyl)-N-(3-(6-ethoxypyridin-3-yl)phenyl)-3-fluorobicyclo[1.1.1]pentane-1-carboxamide]  147 nM
13. COCc1ccc(-c2cccc(N(CC34CCC(c5nc(C(C)C)no5)(CC3)CC4)C(=O)C34CC(F)(C3)C4)c2)cn1 [Example 391, 3-fluoro-N-((4-(3-isopropyl-1,2,4-oxadiazol-5-yl)bicyclo[2.2.2]octan-1-yl)methyl)-N-(3-(6-(methoxymethyl)pyridin-3-yl)phenyl)bicyclo[1.1.1]pentane-1-carboxamide]  147 nM
14. CCOc1ccc(-c2cccc(N(CC34CCC(c5nc(C(C)(C)C)no5)(CC3)CC4)C(=O)C34CC(F)(C3)C4)c2)cc1 [Example 359, N-((4-(3-(tert-butyl)-1,2,4-oxadiazol-5-yl)bicyclo[2.2.2]octan-1-yl)methyl)-N-(4′-ethoxy-[1,1′-biphenyl]-3-yl)-3-fluorobicyclo[1.1.1]pentane-1-carboxamide]  151 nM
15. COc1ncc(-c2cccc(N(CC34CCC(c5nc(C6CC6)no5)(CC3)CC4)C(=O)C34CC(F)(C3)C4)c2)cn1 [Example 248, N-((4-(3-cyclopropyl-1,2,4-oxadiazol-5-yl)bicyclo[2.2.2]octan-1-yl)methyl)-3-fluoro-N-(3-(2-methoxypyrimidin-5-yl)phenyl)bicyclo[1.1.1]pentane-1-carboxamide]  154 nM
16. N-((4-(3-cyclopropyl-1,2,4-oxadiazol-5-yl)bicyclo[2.2.2]octan-1-yl)methyl)-3-fluoro-N-(3-morpholinophenyl)bicyclo[1.1.1]pentane-1-carboxamide [Example 417]  207 nM
17. O=C(C1CC(O)(C(F)(F)F)C1)N(CC12CCC(c3noc(-c4ccc(F)cc4)n3)(CC1)CC2)c1cccc(-c2ccc(OC(F)F)cc2)c1 (stereo not drawn) [Example 639, (cis)-N-(4′-(difluoromethoxy)-[1,1′-biphenyl]-3-yl)-N-((4-(5-(4-fluorophenyl)-1,2,4-oxadiazol-3-yl)bicyclo[2.2.2]octan-1-yl)methyl)-3-hydroxy-3-(trifluoromethyl)cyclobutane-1-carboxamide]  221 nM
18. CS(=O)(=O)Nc1ccc(-c2cccc(N(CC34CCC(c5nnc(C6CC6)o5)(CC3)CC4)C(=O)C34CC(F)(C3)C4)c2)cc1 [Example 344, N-((4-(5-cyclopropyl-1,3,4-oxadiazol-2-yl)bicyclo[2.2.2]octan-1-yl)methyl)-3-fluoro-N-(4′-(methylsulfonamido)-[1,1′-biphenyl]-3-yl)bicyclo[1.1.1]pentane-1-carboxamide]  293 nM
19. Cc1ccnc(-c2cccc(N(CC34CCC(c5nc(C6CC6)no5)(CC3)CC4)C(=O)C34CC(F)(C3)C4)c2)n1 [Example 300, N-((4-(3-cyclopropyl-1,2,4-oxadiazol-5-yl)bicyclo[2.2.2]octan-1-yl)methyl)-3-fluoro-N-(3-(4-methylpyrimidin-2-yl)phenyl)bicyclo[1.1.1]pentane-1-carboxamide]  413 nM
20. CC(C)(C)c1nc(C23CCC(CN(C(=O)C4CC(O)(C(F)(F)F)C4)c4cccc(-c5ccc(NS(C)(=O)=O)cc5)c4)(CC2)CC3)no1 [Example 513, (1S,3S)—N-((4-(5-(tert-butyl)-1,2,4-oxadiazol-3-yl)bicyclo[2.2.2]octan-1-yl)methyl)-3-hydroxy-N-(4′-(methylsulfonamido)-[1,1′-biphenyl]-3-yl)-3-(trifluoromethyl)cyclobutane-1-carboxamide]  922 nM
21. CC(C)(F)c1nc(C23CCC(CN(c4cccc(N5CC6(COC6)C5)c4)C(=O)[C@H]4C[C@](O)(C(F)(F)F)C4)(CC2)CC3)no1 [Example 592, (cis)-N-(3-(2-oxa-6-azaspiro[3.3]heptan-6-yl)phenyl)-N-((4-(5-(2-fluoropropan-2-yl)-1,2,4-oxadiazol-3-yl)bicyclo[2.2.2]octan-1-yl)methyl)-3-hydroxy-3-(trifluoromethyl)cyclobutane-1-carboxamide]  970 nM
22. COc1cc(-c2cccc(N(CC34CCC(c5nnc(C)o5)(CC3)CC4)C(=O)C34CC(F)(C3)C4)c2)ccn1 [Example 230, 3-Fluoro-N-(3-(2-methoxypyridin-4-yl)phenyl)-N-((4-(5-methyl-1,3,4-oxadiazol-2-yl)bicyclo[2.2.2]octan-1-yl)methyl)bicyclo[1.1.1]pentane-1-carboxamide]  988 nM
